# Tests used:
# S. aureus ATCC 13709 = experiment: In vitro antibacterial susceptibility (MIC, broth microdilution); type: cell-based; details: for MIC against S. aureus ATCC 13709, CAMHB: cation-adjusted Mueller-Hinton broth, 37° C., 18 h; for Antibacterial activity compared with oritavancin 5: deduced from the MIC data of Table 2
# Protocol: Susceptibility of S. aureus strain ATCC13709 to oritavancin (5) and synthesized compounds was determined following the guidelines set by the Clinical and Laboratory Standards Institute (formerly the National Committee for Clinical Laboratory Standards) (M26-A). Compounds were serially diluted two-fold in either DMSO (Oritavancin 5) or in PBS and transferred to cation-adjusted Mueller Hinton broth (CAMHB; Becton Dickinson). 50 μL of compounds diluted in CAMHB was mixed with 100 μL of bacteria diluted in CAMHB in 96-well microtiter plates. The final number of micro-organisms in the assay was 5×10^5 c.f.u. per mL and the final concentration of DMSO in the assay, if present, was 1.25%. All solutions may contain 0.002% Tween as indicated. Assays were set up in duplicate and incubated at 37° C. for 18 h. The concentration of compound that inhibited visible growth was reported as the minimum inhibitory concentration (MIC).
# [1] = Solubility in phosphate buffered saline; type: physicochemical; details: 10 mM phosphate buffered saline (0.138 M NaCl, 2.7 mM KCl), pH 7.4
# Protocol: To a sample of the material of known mass were added known volumes of phosphate buffered saline until complete dissolution is observed. Suspensions were centrifuged for 5 min at 10000 rpm. […] Upon complete dissolution, the solution is diluted until the final concentration is 0.5 mg/mL to ensure that the material remains soluble over the entire range of concentrations.
Structure (SMILES),"MIC against S. aureus ATCC 13709, CAMHB + 0.002% tween (S. aureus ATCC 13709) [µg/mL]","MIC against S. aureus ATCC 13709, CAMHB + 50% human serum (S. aureus ATCC 13709) [µg/mL]","MIC against S. aureus ATCC 13709, CAMHB + 50% mouse serum (S. aureus ATCC 13709) [µg/mL]","MIC against S. aureus ATCC 13709, CAMHB + 50% rat serum (S. aureus ATCC 13709) [µg/mL]","MIC against S. aureus ATCC 13709, CAMHB (S. aureus ATCC 13709) [µg/mL]",Solubility (mg/mL) PBS [1] [mg/mL],Antibacterial activity compared with oritavancin 5 (S. aureus ATCC 13709)
CC(C)CC(C(=O)NC1C(=O)NC(CC(N)=O)C(=O)NC2C(=O)NC3C(=O)NC(C(=O)NC(C(=O)O)c4cc(O)cc(O)c4-c4cc3ccc4O)C(OC3CC(C)(N)C(O)C(C)O3)c3ccc(c(Cl)c3)Oc3cc2cc(c3OC2OC(CO)C(O)C(O)C2OC2CC(C)(NCc3ccc(-c4ccc(Cl)cc4)cc3)C(O)C(C)O2)Oc2ccc(cc2Cl)C1O)N(C)C(=O)CNCCCNCCCCNCCCN (stereo not drawn) [Compound 36],0.06,0.125,0.25,0.125,1,–,–
CC(C)CC(C(=O)NC1C(=O)NC(CC(N)=O)C(=O)NC2C(=O)NC3C(=O)NC(C(=O)NC(C(=O)O)c4cc(O)cc(O)c4-c4cc3ccc4O)C(OC3CC(C)(N)C(O)C(C)O3)c3ccc(c(Cl)c3)Oc3cc2cc(c3OC2OC(CO)C(O)C(O)C2OC2CC(C)(NCc3ccc(-c4ccc(Cl)cc4)cc3)C(O)C(C)O2)Oc2ccc(cc2Cl)C1O)N(C)C(=O)OCOC(=O)CNCCCNCCCCNCCCN (stereo not drawn) [Compound 38],0.25,1,1,0.5,2,<0.5,within an order of magnitude of that of oritavancin 5
CC(C)CC(C(=O)NC1C(=O)NC(CC(N)=O)C(=O)NC2C(=O)NC3C(=O)NC(C(=O)NC(C(=O)O)c4cc(O)cc(O)c4-c4cc3ccc4O)C(OC3CC(C)(N)C(O)C(C)O3)c3ccc(c(Cl)c3)Oc3cc2cc(c3OC2OC(CO)C(O)C(O)C2OC2CC(C)(NCc3ccc(-c4ccc(Cl)cc4)cc3)C(O)C(C)O2)Oc2ccc(cc2Cl)C1O)N(C)C(=O)OCOC(=O)C(N)CCCCN (stereo not drawn) [Compound 44],0.5,4,0.25,0.5,4,<0.5,within an order of magnitude of that of oritavancin 5
CC(C)CC(C(=O)NC1C(=O)NC(CC(N)=O)C(=O)NC2C(=O)NC3C(=O)NC(C(=O)NC(C(=O)O)c4cc(O)cc(O)c4-c4cc3ccc4O)C(OC3CC(C)(NC(=O)OCOC(=O)C(N)CCCCN)C(O)C(C)O3)c3ccc(c(Cl)c3)Oc3cc2cc(c3OC2OC(CO)C(O)C(O)C2OC2CC(C)(NCc3ccc(-c4ccc(Cl)cc4)cc3)C(O)C(C)O2)Oc2ccc(cc2Cl)C1O)N(C)C(=O)OCOC(=O)C(N)CCCCN (stereo not drawn) [Compound 46],0.25,0.5,1,0.25,1,<0.5,within an order of magnitude of that of oritavancin 5
CC(C)CC(C(=O)NC1C(=O)NC(CC(N)=O)C(=O)NC2C(=O)NC3C(=O)NC(C(=O)NC(C(=O)O)c4cc(O)cc(O)c4-c4cc3ccc4O)C(OC3CC(C)(N)C(O)C(C)O3)c3ccc(c(Cl)c3)Oc3cc2cc(c3OC2OC(CO)C(O)C(O)C2OC2CC(C)(NCc3ccc(-c4ccc(Cl)cc4)cc3)C(O)C(C)O2)Oc2ccc(cc2Cl)C1O)N(C)C(=O)OCOC(=O)C(CCCCN)NC(=O)C(N)CCCCN (stereo not drawn) [Compound 56],0.5,4,0.5,0.25,2,>5,within an order of magnitude of that of oritavancin 5
CNC(CC(C)C)C(=O)NC1C(=O)NC(CC(N)=O)C(=O)NC2C(=O)NC3C(=O)NC(C(=O)NC(C(=O)SCC[N+](C)(C)C)c4cc(O)cc(O)c4-c4cc3ccc4O)C(OC3CC(C)(N)C(O)C(C)O3)c3ccc(c(Cl)c3)Oc3cc2cc(c3OC2OC(CO)C(O)C(O)C2OC2CC(C)(NCc3ccc(-c4ccc(Cl)cc4)cc3)C(O)C(C)O2)Oc2ccc(cc2Cl)C1O (stereo not drawn) [Compound 98],0.25,0.25,2,0.125,1,–,within an order of magnitude of that of oritavancin 5

# Source: US8901072B2, “Glycopeptide and lipoglycopeptide antibiotics with improved solubility” (The Medicines Company, priority 2009, dated 2014)
